Each structure is given as a SMILES string. Active and inactive are the calls of the source. Cut-off read from the data, not from the text of the source, for most assays here: actives have a measured Kd and inactives only a lower limit.

One assay addresses T1, Activin receptor type-1B (Homo sapiens, UniProt P36896).
T1 sequence (P36896 whole entry): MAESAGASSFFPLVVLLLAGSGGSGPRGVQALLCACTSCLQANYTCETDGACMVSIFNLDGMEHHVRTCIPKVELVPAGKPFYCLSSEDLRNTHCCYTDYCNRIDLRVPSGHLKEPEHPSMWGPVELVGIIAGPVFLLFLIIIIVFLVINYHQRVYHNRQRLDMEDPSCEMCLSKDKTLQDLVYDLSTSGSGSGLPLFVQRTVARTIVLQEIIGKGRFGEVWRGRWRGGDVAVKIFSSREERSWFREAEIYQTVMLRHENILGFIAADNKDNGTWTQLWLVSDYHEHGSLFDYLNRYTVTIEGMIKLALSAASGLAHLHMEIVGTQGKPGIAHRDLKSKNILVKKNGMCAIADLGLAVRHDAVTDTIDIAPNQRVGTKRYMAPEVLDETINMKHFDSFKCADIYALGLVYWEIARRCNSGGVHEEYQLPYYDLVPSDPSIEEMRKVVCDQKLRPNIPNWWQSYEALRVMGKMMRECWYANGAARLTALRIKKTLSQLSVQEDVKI

Assay [1] has as its target T2, AarF domain-containing protein kinase 1 (Homo sapiens, UniProt Q86TW2).
T2 sequence (Q86TW2 whole entry): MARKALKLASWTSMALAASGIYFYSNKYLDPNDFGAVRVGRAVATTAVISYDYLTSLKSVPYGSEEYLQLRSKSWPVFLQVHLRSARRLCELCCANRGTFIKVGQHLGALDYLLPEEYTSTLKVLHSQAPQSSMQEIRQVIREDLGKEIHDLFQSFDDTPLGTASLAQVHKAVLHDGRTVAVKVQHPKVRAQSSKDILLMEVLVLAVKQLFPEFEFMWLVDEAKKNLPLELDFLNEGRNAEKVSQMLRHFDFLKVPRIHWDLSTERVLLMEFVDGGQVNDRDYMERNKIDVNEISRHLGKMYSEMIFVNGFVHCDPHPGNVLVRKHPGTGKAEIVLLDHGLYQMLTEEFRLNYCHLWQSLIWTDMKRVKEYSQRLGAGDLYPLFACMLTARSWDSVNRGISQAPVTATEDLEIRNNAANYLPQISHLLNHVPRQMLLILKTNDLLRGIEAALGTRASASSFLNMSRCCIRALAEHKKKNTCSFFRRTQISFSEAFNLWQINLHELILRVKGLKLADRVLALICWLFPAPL

Assay [2] deals with Bone morphogenetic protein receptor type-1A (Homo sapiens, UniProt P36894).
For assay [3], the target named is Mitotic checkpoint serine/threonine-protein kinase BUB1 (Homo sapiens, UniProt O43683).
The target in assay [4] is Cyclin-dependent kinase 12 (Homo sapiens, UniProt Q9NYV4).
A further assay has as its target Deoxycytidine kinase (Homo sapiens, UniProt P27707).
Assay [5] has as its target Dual specificity tyrosine-phosphorylation-regulated kinase 1A (Homo sapiens, UniProt Q13627).
For the next assay, the target named is T3, Ephrin type-B receptor 3 (Homo sapiens, UniProt P54753).
T3 sequence (P54753 whole entry): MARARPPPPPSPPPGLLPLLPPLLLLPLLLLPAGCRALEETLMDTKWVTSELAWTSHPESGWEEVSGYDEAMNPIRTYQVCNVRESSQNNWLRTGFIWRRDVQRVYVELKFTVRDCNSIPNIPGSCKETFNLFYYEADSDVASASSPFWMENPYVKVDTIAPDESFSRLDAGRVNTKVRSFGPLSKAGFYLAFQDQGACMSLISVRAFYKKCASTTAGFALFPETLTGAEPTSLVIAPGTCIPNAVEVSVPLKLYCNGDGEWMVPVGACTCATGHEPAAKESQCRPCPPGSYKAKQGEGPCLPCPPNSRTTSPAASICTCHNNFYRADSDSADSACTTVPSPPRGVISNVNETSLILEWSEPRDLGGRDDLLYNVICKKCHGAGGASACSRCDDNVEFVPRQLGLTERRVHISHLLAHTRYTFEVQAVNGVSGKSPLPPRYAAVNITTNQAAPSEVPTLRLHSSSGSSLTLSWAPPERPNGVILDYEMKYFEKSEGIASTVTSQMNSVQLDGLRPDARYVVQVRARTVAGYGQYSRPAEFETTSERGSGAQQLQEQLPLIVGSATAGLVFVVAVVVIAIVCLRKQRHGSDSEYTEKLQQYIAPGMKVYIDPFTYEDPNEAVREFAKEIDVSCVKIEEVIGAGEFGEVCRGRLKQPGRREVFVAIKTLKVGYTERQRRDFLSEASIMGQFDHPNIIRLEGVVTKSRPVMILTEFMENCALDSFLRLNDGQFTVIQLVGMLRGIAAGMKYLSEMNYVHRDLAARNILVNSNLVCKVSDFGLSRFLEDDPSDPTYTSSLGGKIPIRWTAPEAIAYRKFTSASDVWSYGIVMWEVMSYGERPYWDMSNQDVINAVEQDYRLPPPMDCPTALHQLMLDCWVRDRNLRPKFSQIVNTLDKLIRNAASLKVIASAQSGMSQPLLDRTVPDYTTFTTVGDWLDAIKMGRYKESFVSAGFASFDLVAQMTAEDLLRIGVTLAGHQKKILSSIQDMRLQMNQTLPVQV

Assay [6] addresses Guanine nucleotide-binding protein G(i) subunit alpha-2 (Homo sapiens, UniProt P04899).
For assay [7], the target named is Mitogen-activated protein kinase 8 (Homo sapiens, UniProt P45983).
Assay [8] deals with MAP kinase-activated protein kinase 2 (Homo sapiens, UniProt P49137).
The target in assay [9] is Ribosomal protein S6 kinase alpha-5 (Homo sapiens, UniProt O75582).
For assay [10], the target named is T4, Uncharacterized protein FLJ45252 (Homo sapiens, UniProt Q6ZSR9).
T4 sequence (Q6ZSR9 whole entry): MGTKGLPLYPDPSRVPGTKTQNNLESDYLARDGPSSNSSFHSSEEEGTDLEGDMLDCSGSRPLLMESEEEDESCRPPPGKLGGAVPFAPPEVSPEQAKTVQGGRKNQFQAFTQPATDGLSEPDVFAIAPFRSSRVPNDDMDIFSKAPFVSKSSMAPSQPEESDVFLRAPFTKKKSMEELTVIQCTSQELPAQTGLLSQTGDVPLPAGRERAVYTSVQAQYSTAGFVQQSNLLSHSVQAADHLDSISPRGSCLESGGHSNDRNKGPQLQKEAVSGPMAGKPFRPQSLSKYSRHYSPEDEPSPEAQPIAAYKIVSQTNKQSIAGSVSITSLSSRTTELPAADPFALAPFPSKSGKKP
The settings on record: read-out: Kd apparent; k-562, colo 205, sk-n-be(2) and mv-4-11.
Note: in the data inactive means no Kd found up to 30 µM.

Chain of MAP kinase-activated protein kinase 2 (P49137 whole entry): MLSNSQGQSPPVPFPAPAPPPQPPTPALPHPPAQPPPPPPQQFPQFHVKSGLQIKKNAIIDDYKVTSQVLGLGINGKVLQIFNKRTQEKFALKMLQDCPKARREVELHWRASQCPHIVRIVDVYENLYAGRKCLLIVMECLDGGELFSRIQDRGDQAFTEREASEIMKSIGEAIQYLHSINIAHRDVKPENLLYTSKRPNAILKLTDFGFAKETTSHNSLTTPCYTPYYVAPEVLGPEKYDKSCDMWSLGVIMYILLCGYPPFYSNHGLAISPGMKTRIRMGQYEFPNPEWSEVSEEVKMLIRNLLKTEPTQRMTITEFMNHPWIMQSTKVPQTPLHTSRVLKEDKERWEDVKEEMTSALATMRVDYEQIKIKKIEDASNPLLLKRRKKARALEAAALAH
Chain of Deoxycytidine kinase (P27707 whole entry): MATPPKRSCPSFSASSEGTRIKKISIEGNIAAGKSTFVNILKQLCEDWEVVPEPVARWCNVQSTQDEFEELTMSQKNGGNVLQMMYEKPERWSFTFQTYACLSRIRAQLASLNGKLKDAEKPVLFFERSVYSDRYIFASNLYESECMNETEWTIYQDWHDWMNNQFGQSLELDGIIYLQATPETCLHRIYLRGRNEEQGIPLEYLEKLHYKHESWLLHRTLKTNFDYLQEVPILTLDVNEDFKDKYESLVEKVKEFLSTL
Chain of Guanine nucleotide-binding protein G(i) subunit alpha-2 (P04899 whole entry): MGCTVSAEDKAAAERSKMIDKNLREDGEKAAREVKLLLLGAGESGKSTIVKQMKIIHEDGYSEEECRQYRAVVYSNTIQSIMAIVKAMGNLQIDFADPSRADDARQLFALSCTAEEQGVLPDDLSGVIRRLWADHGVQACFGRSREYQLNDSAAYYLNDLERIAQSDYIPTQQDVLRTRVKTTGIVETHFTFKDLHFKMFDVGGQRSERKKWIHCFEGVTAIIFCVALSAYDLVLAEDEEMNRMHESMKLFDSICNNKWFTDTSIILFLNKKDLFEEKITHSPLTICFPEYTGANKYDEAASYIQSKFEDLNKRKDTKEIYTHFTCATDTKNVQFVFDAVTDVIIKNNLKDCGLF
Chain of Mitogen-activated protein kinase 8 (P45983 whole entry): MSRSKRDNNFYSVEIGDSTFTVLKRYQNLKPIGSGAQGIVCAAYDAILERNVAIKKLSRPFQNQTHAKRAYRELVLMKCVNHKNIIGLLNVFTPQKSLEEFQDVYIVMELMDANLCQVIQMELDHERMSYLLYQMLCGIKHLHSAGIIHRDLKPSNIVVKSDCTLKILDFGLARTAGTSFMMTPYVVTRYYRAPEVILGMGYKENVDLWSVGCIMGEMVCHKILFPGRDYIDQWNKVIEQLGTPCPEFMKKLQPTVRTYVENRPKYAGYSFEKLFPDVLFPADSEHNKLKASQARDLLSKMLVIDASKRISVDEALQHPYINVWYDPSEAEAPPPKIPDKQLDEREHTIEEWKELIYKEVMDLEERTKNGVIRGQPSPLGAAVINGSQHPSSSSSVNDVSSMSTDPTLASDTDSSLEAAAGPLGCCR
Chain of Cyclin-dependent kinase 12 (Q9NYV4 whole entry): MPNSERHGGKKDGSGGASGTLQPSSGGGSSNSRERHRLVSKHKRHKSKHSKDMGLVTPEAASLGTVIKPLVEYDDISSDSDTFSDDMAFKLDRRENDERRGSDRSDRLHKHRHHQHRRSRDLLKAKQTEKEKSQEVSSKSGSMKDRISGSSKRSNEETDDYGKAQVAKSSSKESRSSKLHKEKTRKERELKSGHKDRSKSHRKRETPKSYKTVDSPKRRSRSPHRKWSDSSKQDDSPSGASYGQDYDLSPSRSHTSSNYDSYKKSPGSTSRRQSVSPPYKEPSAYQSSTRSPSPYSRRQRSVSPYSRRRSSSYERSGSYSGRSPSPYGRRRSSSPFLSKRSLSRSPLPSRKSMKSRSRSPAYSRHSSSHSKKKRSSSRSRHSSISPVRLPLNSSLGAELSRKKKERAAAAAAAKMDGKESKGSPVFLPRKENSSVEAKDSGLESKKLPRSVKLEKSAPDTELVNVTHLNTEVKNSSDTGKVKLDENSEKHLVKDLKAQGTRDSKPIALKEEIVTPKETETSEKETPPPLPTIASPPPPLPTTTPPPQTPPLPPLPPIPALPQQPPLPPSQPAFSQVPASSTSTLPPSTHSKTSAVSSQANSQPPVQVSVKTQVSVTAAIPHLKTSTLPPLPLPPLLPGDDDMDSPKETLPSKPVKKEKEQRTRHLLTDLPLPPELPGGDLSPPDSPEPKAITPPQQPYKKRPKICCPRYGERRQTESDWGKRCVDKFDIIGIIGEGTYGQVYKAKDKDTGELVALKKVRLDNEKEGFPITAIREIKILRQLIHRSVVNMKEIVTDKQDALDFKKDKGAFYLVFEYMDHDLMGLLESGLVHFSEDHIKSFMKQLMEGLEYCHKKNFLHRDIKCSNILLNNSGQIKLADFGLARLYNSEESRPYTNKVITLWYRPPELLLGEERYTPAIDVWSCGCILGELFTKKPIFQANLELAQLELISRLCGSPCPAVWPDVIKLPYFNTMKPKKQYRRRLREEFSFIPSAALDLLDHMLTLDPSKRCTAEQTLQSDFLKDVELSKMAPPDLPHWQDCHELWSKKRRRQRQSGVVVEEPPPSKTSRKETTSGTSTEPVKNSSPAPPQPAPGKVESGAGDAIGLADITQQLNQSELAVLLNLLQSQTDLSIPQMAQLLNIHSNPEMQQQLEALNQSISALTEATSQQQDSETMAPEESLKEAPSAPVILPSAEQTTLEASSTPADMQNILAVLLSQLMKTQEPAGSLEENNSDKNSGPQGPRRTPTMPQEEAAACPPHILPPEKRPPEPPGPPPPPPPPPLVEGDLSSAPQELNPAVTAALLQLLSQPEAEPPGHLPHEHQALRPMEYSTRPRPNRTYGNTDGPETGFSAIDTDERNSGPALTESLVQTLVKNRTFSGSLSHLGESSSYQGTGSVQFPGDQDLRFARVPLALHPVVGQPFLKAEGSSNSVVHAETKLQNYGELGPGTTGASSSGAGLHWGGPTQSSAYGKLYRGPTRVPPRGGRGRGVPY
Chain of Bone morphogenetic protein receptor type-1A (P36894 whole entry): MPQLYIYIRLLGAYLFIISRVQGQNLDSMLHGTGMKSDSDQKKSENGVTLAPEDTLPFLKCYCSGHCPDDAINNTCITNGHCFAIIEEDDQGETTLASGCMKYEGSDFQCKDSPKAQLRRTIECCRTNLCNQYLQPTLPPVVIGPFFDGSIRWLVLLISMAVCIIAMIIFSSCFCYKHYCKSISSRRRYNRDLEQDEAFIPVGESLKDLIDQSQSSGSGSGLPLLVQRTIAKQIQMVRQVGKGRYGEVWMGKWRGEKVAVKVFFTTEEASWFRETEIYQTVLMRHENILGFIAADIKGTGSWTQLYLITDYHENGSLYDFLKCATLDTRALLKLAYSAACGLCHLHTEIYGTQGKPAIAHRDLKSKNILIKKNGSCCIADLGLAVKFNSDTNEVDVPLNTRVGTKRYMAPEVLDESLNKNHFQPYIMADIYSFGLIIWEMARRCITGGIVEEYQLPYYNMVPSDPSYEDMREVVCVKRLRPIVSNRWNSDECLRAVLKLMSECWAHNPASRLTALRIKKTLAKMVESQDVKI
Chain of Mitotic checkpoint serine/threonine-protein kinase BUB1 (O43683 whole entry): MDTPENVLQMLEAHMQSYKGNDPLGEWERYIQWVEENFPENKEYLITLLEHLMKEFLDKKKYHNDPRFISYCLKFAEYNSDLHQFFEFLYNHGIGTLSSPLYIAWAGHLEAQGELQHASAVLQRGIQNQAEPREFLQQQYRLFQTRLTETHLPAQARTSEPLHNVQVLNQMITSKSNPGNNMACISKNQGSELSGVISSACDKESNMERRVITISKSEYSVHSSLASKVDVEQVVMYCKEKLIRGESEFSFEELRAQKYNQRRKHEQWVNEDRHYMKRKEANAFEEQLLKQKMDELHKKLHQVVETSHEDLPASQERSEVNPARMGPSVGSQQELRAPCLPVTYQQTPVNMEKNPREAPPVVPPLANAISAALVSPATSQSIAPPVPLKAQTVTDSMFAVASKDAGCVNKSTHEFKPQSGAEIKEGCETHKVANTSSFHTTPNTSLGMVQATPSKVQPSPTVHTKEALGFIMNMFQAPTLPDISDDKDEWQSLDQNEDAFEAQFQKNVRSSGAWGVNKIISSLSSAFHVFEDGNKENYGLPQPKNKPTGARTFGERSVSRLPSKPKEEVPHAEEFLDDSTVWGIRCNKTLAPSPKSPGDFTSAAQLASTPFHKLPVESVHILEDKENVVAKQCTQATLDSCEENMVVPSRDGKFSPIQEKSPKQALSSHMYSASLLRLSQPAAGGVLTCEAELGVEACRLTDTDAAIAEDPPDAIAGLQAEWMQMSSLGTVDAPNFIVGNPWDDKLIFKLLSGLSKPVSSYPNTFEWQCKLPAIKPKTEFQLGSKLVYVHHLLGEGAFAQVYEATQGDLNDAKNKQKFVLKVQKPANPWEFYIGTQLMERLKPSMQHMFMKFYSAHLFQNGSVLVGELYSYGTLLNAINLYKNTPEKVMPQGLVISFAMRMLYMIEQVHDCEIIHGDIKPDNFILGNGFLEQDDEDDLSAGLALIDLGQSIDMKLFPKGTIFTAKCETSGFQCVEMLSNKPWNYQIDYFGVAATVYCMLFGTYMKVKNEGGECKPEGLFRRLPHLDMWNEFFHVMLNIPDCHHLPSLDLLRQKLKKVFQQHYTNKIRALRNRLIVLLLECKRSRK

As to `C[C@H]1CNCCCN1S(=O)(=O)c1cccc2cncc(F)c12`, the Kd (on Activin receptor type-1B; in assay [1]; in [2]; in assay [3]; in [4]; at Deoxycytidine kinase) was > 30 µM (inactive) throughout. In addition, the Kd (in assay [5]; on Ephrin type-B receptor 3; in assay [6]; in assay [7]; in assay [8]; in assay [9]) was > 30 µM (inactive) each time. In assay [10], the Kd is > 30 µM (inactive).

In the case of `CCNC(=O)C#Cc1ccc2c(c1)NC(=O)/C2=C(\Nc1ccc(CN(C)C)cc1)c1ccccc1`, the Kd (at Activin receptor type-1B; in assay [1]; in [2]; in [3]; in assay [4]; at Deoxycytidine kinase) was > 30 µM (inactive) in each case. Further, the Kd (in assay [5]; at Ephrin type-B receptor 3; in [6]; in assay [7]; in assay [8]; in [9]) was > 30 µM (inactive) each time. For the same molecule, the Kd in assay [10] was > 30 µM (inactive).

On to `Cc1nc2cc(-c3nn(C(C)C)c4ncnc(N)c34)ccc2o1`, for which the Kd was 0.767 µM (active) on Activin receptor type-1B; > 30 µM (inactive) in assay [1]; 1.28 µM (active) in assay [2]; > 30 µM (inactive) in assay [3]; > 30 µM (inactive) in assay [4]; 6.17 µM on Deoxycytidine kinase. The Kd (in assay [5]; on Ephrin type-B receptor 3; in assay [6]; in assay [7]; in assay [8]; in assay [9]) was > 30 µM (inactive) each time. Besides, the Kd in assay [10] is > 30 µM (inactive).

`Cc1nc(NC(=O)N2CCC[C@H]2C(N)=O)sc1-c1ccnc(C(C)(C)C(F)(F)F)c1` [ALPELISIB]: the Kd (at Activin receptor type-1B; in [1]; in [2]; in assay [4]; on Deoxycytidine kinase; in assay [5]) was > 30 µM (inactive) throughout. The Kd (on Ephrin type-B receptor 3; in assay [6]; in assay [7]; in assay [8]; in [9]; in assay [10]) was > 30 µM (inactive) throughout.

`NC(=O)Nc1cc(-c2cccc(F)c2)sc1C(=O)N[C@H]1CCCNC1` [AZD-7762]: the Kd is > 30 µM (inactive) at Activin receptor type-1B; > 30 µM (inactive) in assay [1]; > 30 µM (inactive) in assay [2]; > 30 µM (inactive) in assay [4]; > 30 µM (inactive) on Deoxycytidine kinase; 1.68 µM (active) in assay [5]. In addition, the Kd on Ephrin type-B receptor 3 was > 30 µM (inactive); in assay [6] it was > 30 µM (inactive); in assay [7] it was > 30 µM (inactive); in [8], > 30 µM (inactive); in assay [9], > 30 µM (inactive); in assay [10], 0.12 µM (active).

Take `COc1c(OCCCN2CCOCC2)ccc2c1N=C(NC(=O)c1cnc(N)nc1)N1CCN=C21` [COPANLISIB]: the Kd (at Activin receptor type-1B; in assay [1]; in assay [2]; in assay [3]; in assay [4]; on Deoxycytidine kinase) was > 30 µM (inactive) throughout. The Kd (in assay [5]; on Ephrin type-B receptor 3; in assay [6]; in [7]; in assay [8]; in assay [9]) was > 30 µM (inactive) throughout.

Regarding `CNC(=O)c1nn(C)c2c1C(C)(C)Cc1cnc(Nc3ccc(N4CCN(C)CC4)cc3)nc1-2` [MILCICLIB], the Kd on Activin receptor type-1B was > 30 µM (inactive); in [1], > 30 µM (inactive); in assay [2], > 30 µM (inactive); in [4], > 30 µM (inactive); on Deoxycytidine kinase, > 30 µM (inactive); in assay [5], 0.105 µM (active). The Kd in [6], in [7], in [8] and in assay [9] was > 30 µM (inactive) in each case.

With `CCS(=O)(=O)c1cccc(-c2cc(C(=O)NC3CCN(C)CC3)c(C)c3[nH]c4ncc(C)cc4c23)c1` [TAK-901], the Kd (at Activin receptor type-1B; in assay [1]; in assay [2]; in [3]; in assay [4]; at Deoxycytidine kinase) was > 30 µM (inactive) throughout. Besides, the Kd in assay [5], in [6], in assay [7], in assay [8] and in assay [9] was > 30 µM (inactive) in each case.

Take `CN1C/C=C/CCOc2cccc(c2)-c2ccnc(n2)Nc2cccc(c2)C1` [ZOTIRACICLIB]: the Kd was > 30 µM (inactive) at Activin receptor type-1B; 0.023 µM in assay [1]; > 30 µM (inactive) in [2]; 5.63 µM (active) in assay [4]; > 30 µM (inactive) at Deoxycytidine kinase; 5.62 µM in [5]. In addition, the Kd is > 30 µM (inactive) on Ephrin type-B receptor 3; > 30 µM (inactive) in assay [6]; 1.46 µM (active) in [7]; > 30 µM (inactive) in assay [8]; > 30 µM (inactive) in [9]; > 30 µM (inactive) in [10].
